Values of other authors as cited in patent US11571414B2, “Methods of treating respiratory illnesses, alleviating inflammation and visceral pain, and alleviating opioid addiction while suppressing withdrawal symptoms” (priority 2019, dated 2023).

Tested on: μ-opioid receptor and the nociception receptor
Settings: nonhuman primates

CC(C)C1CCC(N2CCC3(CC2)C(=O)N(CCNS(N)(=O)=O)Cc2ccccc23)CC1 (centres unmarked) [AT-121]
addictive effects: suppresses the addictive effects
analgesic effects: morphine-like analgesic effects
